Experimental data as given in patent publication US20260232767A1, “INTERLEUKIN-23 RECEPTOR ANTAGONIST PEPTIDES FOR USE IN THE TREATMENT OF PSORIASIS” (Janssen Pharmaceutica NV, priority 2023, published 2026).

Tested on: subjects with moderate-to-severe plaque psoriasis
Assay: Hematology and chemistry laboratory values by CTCAE grade
Format: in vivo, human
Settings: through Week 56
Excerpt: The proportion of participants who discontinued study intervention due to one or more AEs was low (n=4). All events were singular in nature with no apparent dose-dependent increase (Table 48 and Table 52). The number of participants with abnormal hematology and chemistry laboratory values with CTCAE toxicity grade≥3 were low through the end of the study (Table 43 through Table 46). There was no apparent dose-dependent increase in laboratory abnormality occurrences.

[1] = Placebo → 100 mg QD after crossover

## CC(=O)NCCCC[C@@H]1NC(=O)[C@H](Cc2c[nH]c3c(C)cccc23)NC(=O)[C@H]([C@@H](C)O)NC(=O)[C@H](CC(N)=O)NC(=O)[C@@H](NC(C)=O)C(C)(C)SSC(C)(C)[C@@H](C(=O)N[C@@H](Cc2ccc(OCCN)cc2)C(=O)N[C@@H](Cc2ccc3ccccc3c2)C(=O)NC2(C(=O)N[C@@H](CCC(=O)O)C(=O)N[C@@H](CC(N)=O)C(=O)N[C@@H](Cc3cccnc3)C(=O)N(C)CC(N)=O)CCOCC2)NC1=O [IL-23 receptor antagonist peptide, Ac-[Pen]*-N-T-[W(7-Me)]-[Lys(Ac)]-[Pen]*-Phe[4-(2-aminoethoxy)]-[2-Nal]-[THP]-E-N-[3-Pal]-Sarc-NH2 (*[Pen]-[Pen]* formdisulfidebond)]
100 mg QD
  WBC (×10^9/L) (increased): subjects with Grade 2: 0
  WBC (×10^9/L) (increased): subjects with Grade 3: 0
  WBC (×10^9/L) (increased): subjects with Grade 4: 0
  WBC (×10^9/L) (increased): subjects with postbaseline maximum toxicity grade >0: 0
Combined Formula (I) regimens
  Hemoglobin (g/L) (decreased): subjects with Grade 3: 0
  Hemoglobin (g/L) (decreased): subjects with Grade 4: 0
  Hemoglobin (g/L) (increased): subjects with Grade 2: 0
  Hemoglobin (g/L) (increased): subjects with Grade 3: 0
  Hemoglobin (g/L) (increased): subjects with Grade 4: 0
  Lymphocytes (×10^9/L) (decreased): subjects with Grade 3: 0
  Lymphocytes (×10^9/L) (decreased): subjects with Grade 4: 0
  Lymphocytes (×10^9/L) (increased): subjects with Grade 1: 0
  Lymphocytes (×10^9/L) (increased): subjects with Grade 3: 0
  Lymphocytes (×10^9/L) (increased): subjects with Grade 4: 0
  Neutrophils (×10^9/L) (decreased): subjects with Grade 3: 0
  Neutrophils (×10^9/L) (decreased): subjects with Grade 4: 0
  Platelets (×10^9/L) (decreased): subjects with Grade 2: 0
  Platelets (×10^9/L) (decreased): subjects with Grade 3: 0
  Platelets (×10^9/L) (decreased): subjects with Grade 4: 0
  WBC (×10^9/L) (decreased): subjects with Grade 3: 0
  WBC (×10^9/L) (decreased): subjects with Grade 4: 0
  WBC (×10^9/L) (increased): subjects with Grade 1: 0
  WBC (×10^9/L) (increased): subjects with Grade 2: 0
  WBC (×10^9/L) (increased): subjects with Grade 3: 0
  WBC (×10^9/L) (increased): subjects with Grade 4: 0
  WBC (×10^9/L) (increased): subjects with postbaseline maximum toxicity grade >0: 0
Combined
  Alanine Aminotransferase (increased): Subjects with Grade 4: 0
  Albumin (decreased): Subjects with Grade 1: 0
  Albumin (decreased): Subjects with Grade 2: 0
  Albumin (decreased): Subjects with Grade 3: 0
  Albumin (decreased): Subjects with Grade 4: 0
  Albumin (decreased): Subjects with postbaseline maximum toxicity grade >0: 0
  Alkaline Phosphatase (increased): Subjects with Grade 2: 0
  Alkaline Phosphatase (increased): Subjects with Grade 3: 0
  Alkaline Phosphatase (increased): Subjects with Grade 4: 0
  Aspartate Aminotransferase (increased): Subjects with Grade 4: 0
  Calcium corrected (decreased): Subjects with Grade 3: 0
  Calcium corrected (decreased): Subjects with Grade 4: 0
  Calcium corrected (increased): Subjects with Grade 2: 0
  Calcium corrected (increased): Subjects with Grade 3: 0
  Calcium corrected (increased): Subjects with Grade 4: 0
  Cholesterol (increased): Subjects with Grade 3: 0
  Cholesterol (increased): Subjects with Grade 4: 0
  Creatinine (increased): Subjects with Grade 3: 0
  Creatinine (increased): Subjects with Grade 4: 0
  Gamma Glutamyl Transferase (increased): Subjects with Grade 3: 0
  Gamma Glutamyl Transferase (increased): Subjects with Grade 4: 0
  Glucose (decreased): Subjects with Grade 3: 0
  Glucose (decreased): Subjects with Grade 4: 0
  Magnesium (decreased): Subjects with Grade 2: 0
  Magnesium (decreased): Subjects with Grade 3: 0
  Magnesium (decreased): Subjects with Grade 4: 0
  Magnesium (increased): Subjects with Grade 2: 0
  Magnesium (increased): Subjects with Grade 3: 0
  Magnesium (increased): Subjects with Grade 4: 0
  Potassium (decreased): Subjects with Grade 1: 0
  Potassium (decreased): Subjects with Grade 3: 0
  Potassium (decreased): Subjects with Grade 4: 0
  Potassium (increased): Subjects with Grade 4: 0
  Sodium (decreased): Subjects with Grade 2: 0
  Sodium (decreased): Subjects with Grade 3: 0
  Sodium (decreased): Subjects with Grade 4: 0
  Sodium (increased): Subjects with Grade 2: 0
  Sodium (increased): Subjects with Grade 3: 0
  Sodium (increased): Subjects with Grade 4: 0
  Total Bilirubin (increased): Subjects with Grade 3: 0
  Total Bilirubin (increased): Subjects with Grade 4: 0
[1]
  Hemoglobin (g/L) (decreased): subjects with Grade 2: 0
  Hemoglobin (g/L) (decreased): subjects with Grade 3: 0
  Hemoglobin (g/L) (decreased): subjects with Grade 4: 0
  Hemoglobin (g/L) (increased): subjects with Grade 2: 0
  Hemoglobin (g/L) (increased): subjects with Grade 3: 0
  Hemoglobin (g/L) (increased): subjects with Grade 4: 0
  Lymphocytes (×10^9/L) (decreased): subjects with Grade 1: 0
  Lymphocytes (×10^9/L) (decreased): subjects with Grade 3: 0
  Lymphocytes (×10^9/L) (decreased): subjects with Grade 4: 0
  Lymphocytes (×10^9/L) (increased): subjects with Grade 1: 0
  Lymphocytes (×10^9/L) (increased): subjects with Grade 2: 0
  Lymphocytes (×10^9/L) (increased): subjects with Grade 3: 0
  Lymphocytes (×10^9/L) (increased): subjects with Grade 4: 0
  Lymphocytes (×10^9/L) (increased): subjects with postbaseline maximum toxicity grade >0: 0
  Platelets (×10^9/L) (decreased): subjects with Grade 2: 0
  Platelets (×10^9/L) (decreased): subjects with Grade 3: 0
  Platelets (×10^9/L) (decreased): subjects with Grade 4: 0
  WBC (×10^9/L) (decreased): subjects with Grade 2: 0
  WBC (×10^9/L) (decreased): subjects with Grade 3: 0
  WBC (×10^9/L) (decreased): subjects with Grade 4: 0
  WBC (×10^9/L) (increased): subjects with Grade 1: 0
  WBC (×10^9/L) (increased): subjects with Grade 2: 0
  WBC (×10^9/L) (increased): subjects with Grade 3: 0
  WBC (×10^9/L) (increased): subjects with Grade 4: 0
  WBC (×10^9/L) (increased): subjects with postbaseline maximum toxicity grade >0: 0
Placebo → 100 mg QD
  Alanine Aminotransferase (increased): Subjects with Grade 1: 10
  Alanine Aminotransferase (increased): Subjects with Grade 3: 0
  Alanine Aminotransferase (increased): Subjects with Grade 4: 0
  Albumin (decreased): Subjects with Grade 1: 0
  Albumin (decreased): Subjects with Grade 2: 0
  Albumin (decreased): Subjects with Grade 3: 0
  Albumin (decreased): Subjects with Grade 4: 0
  Albumin (decreased): Subjects with postbaseline maximum toxicity grade >0: 0
  Alkaline Phosphatase (increased): Subjects with Grade 2: 0
  Alkaline Phosphatase (increased): Subjects with Grade 3: 0
  Alkaline Phosphatase (increased): Subjects with Grade 4: 0
  Aspartate Aminotransferase (increased): Subjects with Grade 4: 0
  Aspartate Aminotransferase (increased): Subjects with postbaseline maximum toxicity grade >0: 9
  Calcium corrected (decreased): Subjects with Grade 3: 0
  Calcium corrected (decreased): Subjects with Grade 4: 0
  Calcium corrected (increased): Subjects with Grade 1: 0
  Calcium corrected (increased): Subjects with Grade 2: 0
  Calcium corrected (increased): Subjects with Grade 3: 0
  Calcium corrected (increased): Subjects with Grade 4: 0
  Calcium corrected (increased): Subjects with postbaseline maximum toxicity grade >0: 0
  Cholesterol (increased): Subjects with Grade 1: 0
  Cholesterol (increased): Subjects with Grade 2: 0
  Cholesterol (increased): Subjects with Grade 3: 0
  Cholesterol (increased): Subjects with Grade 4: 0
  Cholesterol (increased): Subjects with postbaseline maximum toxicity grade >0: 0
  Creatine Kinase (increased): Subjects with Grade 2: 0
  Creatine Kinase (increased): Subjects with Grade 4: 0
  Creatinine (increased): Subjects with Grade 2: 0
  Creatinine (increased): Subjects with Grade 3: 0
  Creatinine (increased): Subjects with Grade 4: 0
  Gamma Glutamyl Transferase (increased): Subjects with Grade 3: 0
  Gamma Glutamyl Transferase (increased): Subjects with Grade 4: 0
  Glucose (decreased): Subjects with Grade 3: 0
  Glucose (decreased): Subjects with Grade 4: 0
  Magnesium (decreased): Subjects with Grade 2: 0
  Magnesium (decreased): Subjects with Grade 3: 0
  Magnesium (decreased): Subjects with Grade 4: 0
  Magnesium (increased): Subjects with Grade 2: 0
  Magnesium (increased): Subjects with Grade 3: 0
  Magnesium (increased): Subjects with Grade 4: 0
  Potassium (decreased): Subjects with Grade 1: 0
  Potassium (decreased): Subjects with Grade 3: 0
  Potassium (decreased): Subjects with Grade 4: 0
  Potassium (increased): Subjects with Grade 3: 0
  Potassium (increased): Subjects with Grade 4: 0
  Sodium (decreased): Subjects with Grade 1: 0
  Sodium (decreased): Subjects with Grade 2: 0
  Sodium (decreased): Subjects with Grade 3: 0
  Sodium (decreased): Subjects with Grade 4: 0
  Sodium (decreased): Subjects with postbaseline maximum toxicity grade >0: 0
  Sodium (increased): Subjects with Grade 1: 0
  Sodium (increased): Subjects with Grade 2: 0
  Sodium (increased): Subjects with Grade 3: 0
  Sodium (increased): Subjects with Grade 4: 0
  Sodium (increased): Subjects with postbaseline maximum toxicity grade >0: 0
  Total Bilirubin (increased): Subjects with Grade 2: 0
  Total Bilirubin (increased): Subjects with Grade 3: 0
  Total Bilirubin (increased): Subjects with Grade 4: 0
  Triglycerides (increased): Subjects with Grade 3: 0
  Triglycerides (increased): Subjects with Grade 4: 0
